In ChEMBL document CHEMBL4373693, “Virtual Screening Approach and Investigation of Structure-Activity Relationships To Discover Novel Bacterial Topoisomerase Inhibitors Targeting Gram-Positive and Gram-Negative Pathogens” (J Med Chem, 2019):
≈ marks a conversion by molar mass, not a printed value.

Key:
DNA gyrase subunit A [1] = target: DNA gyrase subunit A (Escherichia coli K-12, UniProt P0AES4); assay: Inhibition of Escherichia coli ATCC 25922 DNA gyrase A assessed as reduction in enzyme-mediated supercoiling of relaxed pBR322 DNA by ethidium bromide staining based gel electrophoresis method
Staphylococcus aureus [2] = assay: Antibacterial activity against Staphylococcus aureus BAA-1720 after 16 to 24 hrs by broth microdilution method; type: functional
[3] = target: T1, DNA topoisomerase 4 subunit A (Escherichia coli K-12, UniProt P0AFI2); assay: Inhibition of Escherichia coli ATCC 25922 DNA topoisomerase 4 subunit ParC assessed as reduction in decatenation of kinetoplast DNA incubated for 30 mins by ethidium bromide staining based gel electrophoresis method
T1 sequence (P0AFI2 whole entry): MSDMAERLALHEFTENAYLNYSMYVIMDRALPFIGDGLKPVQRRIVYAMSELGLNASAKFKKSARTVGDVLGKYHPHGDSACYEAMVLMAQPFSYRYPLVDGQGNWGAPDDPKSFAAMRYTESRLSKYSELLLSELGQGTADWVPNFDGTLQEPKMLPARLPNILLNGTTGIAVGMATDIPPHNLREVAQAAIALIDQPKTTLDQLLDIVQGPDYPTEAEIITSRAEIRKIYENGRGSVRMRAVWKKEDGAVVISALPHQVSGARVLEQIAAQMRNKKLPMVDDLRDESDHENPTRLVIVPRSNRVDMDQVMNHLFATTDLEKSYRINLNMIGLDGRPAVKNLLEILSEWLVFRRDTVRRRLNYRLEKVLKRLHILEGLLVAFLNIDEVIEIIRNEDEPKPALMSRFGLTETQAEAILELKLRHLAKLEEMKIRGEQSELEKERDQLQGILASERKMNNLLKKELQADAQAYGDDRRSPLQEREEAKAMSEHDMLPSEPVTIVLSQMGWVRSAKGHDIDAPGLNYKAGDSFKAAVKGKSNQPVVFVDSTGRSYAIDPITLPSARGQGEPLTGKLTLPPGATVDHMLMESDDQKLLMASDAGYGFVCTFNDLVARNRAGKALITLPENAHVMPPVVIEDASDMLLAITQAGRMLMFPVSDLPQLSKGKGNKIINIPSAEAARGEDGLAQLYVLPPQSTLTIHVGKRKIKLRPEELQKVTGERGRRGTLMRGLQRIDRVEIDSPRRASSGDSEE

[4] = target: DNA topoisomerase 4 subunit A (Staphylococcus aureus, UniProt P0C1U9); assay: Inhibition of Staphylococcus aureus ATCC 29213 DNA topoisomerase 4 subunit ParC assessed as reduction in decatenation of kinetoplast DNA incubated for 30 mins by ethidium bromide staining based gel electrophoresis method
Pseudomonas aeruginosa = assay: Antibacterial activity against Pseudomonas aeruginosa ATCC 27853 after 16 to 24 hrs by CLSI method; type: functional
Escherichia coli [5] = assay: Antibacterial activity against Escherichia coli ATCC 25922 after 16 to 24 hrs by broth microdilution method; type: functional
Staphylococcus aureus [6] = assay: Antibacterial activity against Staphylococcus aureus ATCC 29213 after 16 to 24 hrs by broth microdilution method; type: functional
DNA gyrase subunit A [7] = target: DNA gyrase subunit A (Staphylococcus aureus, UniProt P20831); assay: Inhibition of Staphylococcus aureus ATCC 29213 DNA gyrase A assessed as reduction in enzyme-mediated supercoiling of relaxed pBR322 DNA by ethidium bromide staining based gel electrophoresis method
Enterococcus faecalis [8] = assay: Antibacterial activity against vancomycin and teicoplanin-resistant Enterococcus faecalis APV 00408 after 16 to 24 hrs by broth microdilution method; type: functional
Enterococcus faecium [9] = assay: Antibacterial activity against vancomycin and teicoplanin-resistant Enterococcus faecium APV 00422 after 16 to 24 hrs by broth microdilution method; type: functional
[10] = Selectivity ratio, ratio of IC50 for human HepG2 cells to MIC for Staphylococcus aureus ATCC 29213; type: toxicity; details: read-out: Selectivity Index
Enterococcus faecium [11] = assay: Antibacterial activity against vancomycin resistant and teicoplanin sensitive Enterococcus faecium APV 00420 after 16 to 24 hrs by broth microdilution method; type: functional
Staphylococcus aureus [12] = assay: Antibacterial activity against Staphylococcus aureus ATCC 29213 in presence of 50% human serum after 16 to 24 hrs by broth microdilution method; type: functional
Haemophilus influenzae [13] = assay: Antibacterial activity against quinolone-sensitive Haemophilus influenzae H128 after 16 to 24 hrs by broth microdilution method; type: functional
Haemophilus influenzae [14] = assay: Antibacterial activity against quinolone-sensitive Haemophilus influenzae ATCC 49766 after 16 to 24 hrs by broth microdilution method; type: functional
[15] = Selectivity ratio, ratio of IC50 for human HepG2 cells to MIC for Escherichia coli ATCC 25922; type: toxicity; details: read-out: Selectivity Index
[16] = Selectivity ratio, ratio of IC50 for human HEK293 cells to MIC for Escherichia coli ATCC 25922; type: toxicity; details: read-out: Selectivity Index
Enterococcus faecalis [17] = assay: Antibacterial activity against vancomycin-sensitive Enterococcus faecalis APV 00404 after 16 to 24 hrs by broth microdilution method; type: functional
Enterococcus faecalis [18] = assay: Antibacterial activity against vancomycin-sensitive Enterococcus faecalis APV 00406 after 16 to 24 hrs by broth microdilution method; type: functional
Enterococcus faecium [19] = assay: Antibacterial activity against vancomycin resistant and teicoplanin sensitive Enterococcus faecium APV 00553 after 16 to 24 hrs by broth microdilution method; type: functional
[20] = Selectivity ratio, ratio of IC50 for human HEK293 cells to MIC for Staphylococcus aureus ATCC 29213; type: toxicity; details: read-out: Selectivity Index
Enterococcus faecium [21] = assay: Antibacterial activity against Enterococcus faecium APV 00627 after 16 to 24 hrs by broth microdilution method; type: functional
Enterococcus faecium [22] = assay: Antibacterial activity against Enterococcus faecium APV 00626 after 16 to 24 hrs by broth microdilution method; type: functional
hERG (KCNH2) = hERG (KCNH2) (Homo sapiens, UniProt Q12809); assay: Inhibition of human ERG expressed in CHO cells at 10 uM after 5 mins by automated whole-cell patch clamp relative to control; type: cell-based; details: CHO cells that express human ERG
HepG2 = assay: Cytotoxicity against human HepG2 cells after 48 hrs by Alamar blue staining-based fluorometric analysis; type: cell-based; details: HepG2, 48 h
Staphylococcus aureus [23] = assay: Selectivity ratio of MIC for Staphylococcus aureus BAA-1720 in presence of 50% human serum to MIC for Staphylococcus aureus BAA-1720; type: functional
Staphylococcus aureus [24] = assay: Selectivity ratio of MIC for Staphylococcus aureus ATCC 29213 in presence of 50% human serum to MIC for Staphylococcus aureus ATCC 29213; type: functional
Enterococcus faecalis [25] = assay: Antibacterial activity against Enterococcus faecalis ATCC 29212 after 16 to 24 hrs by broth microdilution method; type: functional
Enterococcus faecalis [26] = assay: Antibacterial activity against vancomycin and teicoplanin-resistant Enterococcus faecalis APV 00409 after 16 to 24 hrs by broth microdilution method; type: functional
Staphylococcus aureus [27] = assay: Antibacterial activity against Staphylococcus aureus BAA-1720 in presence of 50% human serum after 16 to 24 hrs by broth microdilution method; type: functional
HEK293 = assay: Cytotoxicity against human HEK293 cells after 48 hrs by Alamar blue staining-based fluorometric analysis; type: cell-based; details: HEK293, 48 h
Enterococcus faecalis [28] = assay: Antibacterial activity against vancomycin-sensitive Enterococcus faecalis APV 00623 after 16 to 24 hrs by broth microdilution method; type: functional
Klebsiella pneumoniae = assay: Antibacterial activity against quinolone-sensitive Klebsiella pneumoniae ATCC 700603 after 16 to 24 hrs by broth microdilution method; type: functional
Escherichia coli [29] = assay: Selectivity ratio of MIC for Escherichia coli ATCC 25922 in presence of 50% human serum to MIC for Escherichia coli ATCC 25922; type: functional
Neisseria gonorrhoeae = assay: Antibacterial activity against Neisseria gonorrhoeae ATCC 19424 after 16 to 24 hrs by broth microdilution method; type: functional
Enterococcus faecium [30] = assay: Antibacterial activity against vancomycin and teicoplanin-resistant Enterococcus faecium APV 00424 after 16 to 24 hrs by broth microdilution method; type: functional
Escherichia coli [31] = assay: Antibacterial activity against Escherichia coli ATCC 25922 in presence of 50% human serum after 16 to 24 hrs by broth microdilution method; type: functional
Staphylococcus aureus [32] = assay: Antibacterial activity against Staphylococcus aureus; type: functional
Escherichia coli [33] = assay: Antibacterial activity against Escherichia coli; type: functional

Chain of DNA gyrase subunit A (Escherichia coli K-12, UniProt P0AES4) (P0AES4 whole entry): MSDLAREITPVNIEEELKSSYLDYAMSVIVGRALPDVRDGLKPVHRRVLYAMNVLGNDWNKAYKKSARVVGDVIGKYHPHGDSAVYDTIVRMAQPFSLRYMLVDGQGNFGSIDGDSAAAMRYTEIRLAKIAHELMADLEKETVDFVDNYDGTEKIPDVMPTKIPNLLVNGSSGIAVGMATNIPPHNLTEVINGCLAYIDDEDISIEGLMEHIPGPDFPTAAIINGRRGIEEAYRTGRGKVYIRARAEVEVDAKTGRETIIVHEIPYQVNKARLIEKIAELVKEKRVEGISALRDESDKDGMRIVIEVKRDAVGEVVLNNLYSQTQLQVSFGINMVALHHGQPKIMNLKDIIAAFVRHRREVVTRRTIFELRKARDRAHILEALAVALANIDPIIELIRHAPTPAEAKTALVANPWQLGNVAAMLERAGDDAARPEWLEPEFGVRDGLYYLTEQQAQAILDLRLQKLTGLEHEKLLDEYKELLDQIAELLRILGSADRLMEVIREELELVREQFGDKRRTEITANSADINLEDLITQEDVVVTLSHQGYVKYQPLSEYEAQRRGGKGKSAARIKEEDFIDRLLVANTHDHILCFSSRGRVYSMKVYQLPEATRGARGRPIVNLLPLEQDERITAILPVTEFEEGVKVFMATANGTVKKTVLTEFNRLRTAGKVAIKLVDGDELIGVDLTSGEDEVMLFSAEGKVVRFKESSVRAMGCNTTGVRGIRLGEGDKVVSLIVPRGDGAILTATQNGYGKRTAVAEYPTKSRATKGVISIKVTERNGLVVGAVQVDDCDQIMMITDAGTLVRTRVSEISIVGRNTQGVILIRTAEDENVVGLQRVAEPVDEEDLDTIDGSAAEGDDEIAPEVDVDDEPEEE
Chain of DNA topoisomerase 4 subunit A (Staphylococcus aureus, UniProt P0C1U9) (P0C1U9 whole entry): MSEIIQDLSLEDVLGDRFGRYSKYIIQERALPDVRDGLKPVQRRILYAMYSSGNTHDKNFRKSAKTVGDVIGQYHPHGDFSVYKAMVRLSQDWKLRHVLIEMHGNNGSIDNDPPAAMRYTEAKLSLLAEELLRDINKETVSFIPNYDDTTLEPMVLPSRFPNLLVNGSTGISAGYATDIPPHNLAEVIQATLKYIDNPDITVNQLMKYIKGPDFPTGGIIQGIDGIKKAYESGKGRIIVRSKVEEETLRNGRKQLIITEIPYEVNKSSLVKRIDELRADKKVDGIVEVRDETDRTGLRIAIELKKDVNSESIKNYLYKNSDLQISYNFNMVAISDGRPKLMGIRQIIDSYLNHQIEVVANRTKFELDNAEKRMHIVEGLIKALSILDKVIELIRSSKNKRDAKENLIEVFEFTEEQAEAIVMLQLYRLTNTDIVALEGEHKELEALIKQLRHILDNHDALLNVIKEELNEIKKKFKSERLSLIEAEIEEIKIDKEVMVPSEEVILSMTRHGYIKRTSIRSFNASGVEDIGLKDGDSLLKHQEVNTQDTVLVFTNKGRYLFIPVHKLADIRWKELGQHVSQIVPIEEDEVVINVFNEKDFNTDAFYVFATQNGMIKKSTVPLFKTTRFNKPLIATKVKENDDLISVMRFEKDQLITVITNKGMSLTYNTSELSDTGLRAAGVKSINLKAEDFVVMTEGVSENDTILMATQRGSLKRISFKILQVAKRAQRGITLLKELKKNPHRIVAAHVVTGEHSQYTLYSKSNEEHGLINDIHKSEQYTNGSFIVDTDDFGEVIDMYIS
Chain of DNA gyrase subunit A (Staphylococcus aureus, UniProt P20831) (P20831 whole entry): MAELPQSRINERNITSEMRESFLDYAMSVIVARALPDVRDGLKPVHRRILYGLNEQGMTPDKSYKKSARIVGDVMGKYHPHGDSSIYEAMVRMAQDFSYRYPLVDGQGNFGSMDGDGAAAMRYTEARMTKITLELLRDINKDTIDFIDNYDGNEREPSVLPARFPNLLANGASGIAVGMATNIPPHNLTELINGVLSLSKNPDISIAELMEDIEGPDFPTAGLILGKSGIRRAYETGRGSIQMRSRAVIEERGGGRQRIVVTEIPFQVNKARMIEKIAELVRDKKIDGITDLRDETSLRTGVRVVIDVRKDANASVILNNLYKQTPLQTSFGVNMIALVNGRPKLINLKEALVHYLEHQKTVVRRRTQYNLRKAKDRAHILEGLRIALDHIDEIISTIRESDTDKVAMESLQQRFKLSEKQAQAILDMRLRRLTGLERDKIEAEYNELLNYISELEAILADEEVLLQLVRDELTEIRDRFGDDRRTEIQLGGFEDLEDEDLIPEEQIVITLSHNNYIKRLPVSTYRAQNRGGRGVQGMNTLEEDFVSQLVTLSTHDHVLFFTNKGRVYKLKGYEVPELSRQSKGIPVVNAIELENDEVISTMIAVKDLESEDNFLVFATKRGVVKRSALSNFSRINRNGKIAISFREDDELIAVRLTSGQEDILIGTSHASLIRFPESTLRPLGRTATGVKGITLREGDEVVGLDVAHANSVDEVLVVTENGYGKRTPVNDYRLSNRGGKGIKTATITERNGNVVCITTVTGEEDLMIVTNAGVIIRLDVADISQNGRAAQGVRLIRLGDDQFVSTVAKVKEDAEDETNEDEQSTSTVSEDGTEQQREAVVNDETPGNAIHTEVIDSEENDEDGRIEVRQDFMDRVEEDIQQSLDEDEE
Chain of hERG (KCNH2) (Q12809 whole entry): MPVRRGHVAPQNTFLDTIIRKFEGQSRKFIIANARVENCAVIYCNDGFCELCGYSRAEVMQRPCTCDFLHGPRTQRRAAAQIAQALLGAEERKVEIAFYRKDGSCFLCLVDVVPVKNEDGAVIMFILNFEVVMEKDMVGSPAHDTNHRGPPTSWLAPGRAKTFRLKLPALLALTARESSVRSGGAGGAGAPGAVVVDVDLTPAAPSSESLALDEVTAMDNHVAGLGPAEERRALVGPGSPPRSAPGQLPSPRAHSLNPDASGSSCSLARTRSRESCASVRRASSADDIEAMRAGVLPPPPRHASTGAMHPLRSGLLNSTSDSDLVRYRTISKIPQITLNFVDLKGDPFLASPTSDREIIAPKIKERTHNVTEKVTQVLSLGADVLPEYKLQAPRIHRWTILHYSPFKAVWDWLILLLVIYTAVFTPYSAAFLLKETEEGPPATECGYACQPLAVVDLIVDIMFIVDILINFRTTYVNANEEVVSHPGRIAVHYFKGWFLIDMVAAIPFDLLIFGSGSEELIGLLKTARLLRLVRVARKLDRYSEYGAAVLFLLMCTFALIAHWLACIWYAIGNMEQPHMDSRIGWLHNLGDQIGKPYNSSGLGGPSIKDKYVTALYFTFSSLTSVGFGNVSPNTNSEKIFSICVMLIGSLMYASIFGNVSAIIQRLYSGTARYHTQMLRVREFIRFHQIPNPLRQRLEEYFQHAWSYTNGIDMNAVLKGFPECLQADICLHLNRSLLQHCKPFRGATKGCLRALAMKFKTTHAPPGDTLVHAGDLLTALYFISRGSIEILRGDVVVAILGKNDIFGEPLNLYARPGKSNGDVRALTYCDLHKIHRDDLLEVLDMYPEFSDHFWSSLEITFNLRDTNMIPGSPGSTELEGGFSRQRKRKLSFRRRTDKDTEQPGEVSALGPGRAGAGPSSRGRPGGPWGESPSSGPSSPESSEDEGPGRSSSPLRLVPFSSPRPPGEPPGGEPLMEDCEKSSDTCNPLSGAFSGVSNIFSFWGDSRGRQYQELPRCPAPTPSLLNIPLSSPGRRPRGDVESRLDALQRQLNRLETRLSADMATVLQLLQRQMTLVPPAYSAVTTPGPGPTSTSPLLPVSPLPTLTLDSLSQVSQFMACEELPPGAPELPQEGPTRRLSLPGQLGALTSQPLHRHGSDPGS

Row | SMILES | IC50 (DNA gyrase subunit A [1]) [µM] | MIC (Staphylococcus aureus [2]) [mg/L] | IC50 [3] [µM] | IC50 [4] [µM] | MIC (Staphylococcus aureus [6]) | MIC (Enterococcus faecalis [8]) [mg/L] | MIC (Enterococcus faecium [9]) [mg/L] | MIC (Enterococcus faecium [11]) [mg/L] | MIC (Haemophilus influenzae [13]) [mg/L] | MIC (Haemophilus influenzae [14]) [mg/L] | MIC (Enterococcus faecalis [17]) [mg/L] | MIC (Enterococcus faecalis [18]) [mg/L] | MIC (Enterococcus faecium [19]) [mg/L] | MIC (Enterococcus faecium [21]) [mg/L] | MIC (Enterococcus faecium [22]) [mg/L] | MIC (Enterococcus faecalis [25]) [mg/L] | MIC (Enterococcus faecalis [26]) [mg/L] | MIC (Enterococcus faecalis [28]) [mg/L] | MIC (Klebsiella pneumoniae) [mg/L] | MIC (Enterococcus faecium [30]) [mg/L] | other results
1 | O=c1cc(NCC(O)CN2CCN(c3nccc4ncccc34)CC2)c2cc(F)ccc2o1 (racemic) | 0.15 | 4 (≈ 8.9 µM) | 0.2 | 0.3 | 4 mg/L |  |  |  |  |  |  |  |  |  |  |  |  |  |  |  | MIC (Pseudomonas aeruginosa): 8 mg/L (≈ 17.8 µM); MIC (Escherichia coli [5]): 2 mg/L; IC50 (DNA gyrase subunit A [7]): 1.1 µM
2 | O=c1nc(NCC(O)CN2CCN(c3nccc4ccc(F)cc34)CC2)c2cc(F)ccc2o1 (racemic) | 0.4 | 0.25 (≈ 0.535 µM) | 0.1 | 0.05 | 0.21 µM | 0.25 (≈ 0.535 µM) | 0.25 (≈ 0.535 µM) | 1 (≈ 2.14 µM) | 0.12 (≈ 0.257 µM) | 0.25 (≈ 0.535 µM) | 0.25 (≈ 0.535 µM) | 0.25 (≈ 0.535 µM) | 0.5 (≈ 1.07 µM) | 1 (≈ 2.14 µM) | 16 (≈ 34.2 µM) | 0.5 (≈ 1.07 µM) | 0.12 (≈ 0.257 µM) | 0.5 (≈ 1.07 µM) | 4 (≈ 8.56 µM) | 0.12 (≈ 0.257 µM) | selectivity ratio [10]: 262; MIC (Staphylococcus aureus [12]): > 8 mg/L; selectivity ratio [15]: 26; selectivity ratio [16]: 37; selectivity ratio [20]: 381; MIC (Pseudomonas aeruginosa): 4 mg/L (≈ 8.56 µM); inhibition at 5 min, 10 µM (hERG (KCNH2)): 67%; IC50 (HepG2): 55 µM; Ratio (Staphylococcus aureus [23]): >=32 - 267; Ratio (Staphylococcus aureus [24]): >=32 - 267; MIC (Escherichia coli [5]): 2.14 µM; IC50 (DNA gyrase subunit A [7]): 0.02 µM; MIC (Staphylococcus aureus [27]): > 8 mg/L; IC50 (HEK293): 80 µM; Ratio (Escherichia coli [29]): >=32 - 267; MIC (Neisseria gonorrhoeae): ≤ 0.06 mg/L; MIC (Escherichia coli [31]): > 8 mg/L
3 | O=C(O)c1cn(C2CC2)c2cc(N3CCNCC3)c(F)cc2c1=O [CIPROFLOXACIN] |  | 4 to 64 (≈ 12.1 to 193 µM) |  |  | 0.25 to 0.5 mg/L | 64 (≈ 193 µM) | 128 (≈ 386 µM) | > 32 | 0.008 (≈ 0.0241 µM) | 0.015 (≈ 0.0453 µM) | 2 (≈ 6.04 µM) | 64 (≈ 193 µM) | 128 (≈ 386 µM) | 4 (≈ 12.1 µM) | 16 (≈ 48.3 µM) | 1 (≈ 3.02 µM) | 32 (≈ 96.6 µM) | 2 (≈ 6.04 µM) | 0.125 (≈ 0.377 µM) | > 128 | MIC (Staphylococcus aureus [12]): 0.25 mg/L; MIC (Staphylococcus aureus [27]): > 4 mg/L; MIC (Neisseria gonorrhoeae): ≤ 0.06 mg/L
4 | O=c1ccc2ncc(=O)n3c2n1C[C@H]3CN1CCC(NCc2cc3c(cn2)OCCC3)CC1 [GEPOTIDACIN] |  |  |  |  |  |  |  |  |  |  |  |  |  |  |  |  |  |  |  |  | MIC90 (Staphylococcus aureus [32]): 0.5 mg/L (≈ 1.11 µM); MIC90 (Escherichia coli [33]): 4 mg/L (≈ 8.92 µM)
5 | CN[C@H](CC(C)C)C(=O)N[C@H]1C(=O)N[C@@H](CC(N)=O)C(=O)N[C@H]2C(=O)N[C@H]3C(=O)N[C@H](C(=O)N[C@H](C(=O)O)c4cc(O)cc(O)c4-c4cc3ccc4O)[C@H](O)c3ccc(c(Cl)c3)Oc3cc2cc(c3O[C@@H]2O[C@H](CO)[C@@H](O)[C@H](O)[C@H]2O[C@H]2C[C@](C)(N)[C@H](O)[C@H](C)O2)Oc2ccc(cc2Cl)[C@H]1O [VANCOMYCIN] |  |  |  |  |  | > 128 | > 128 | > 8 | > 8 | > 8 | 2 (≈ 1.38 µM) | 1 (≈ 0.69 µM) | > 128 | > 128 | > 128 | 4 (≈ 2.76 µM) | > 128 | 2 (≈ 1.38 µM) | > 8 | > 128 | 
